Measured values: ChEMBL document CHEMBL3414534, “Water-soluble isoindolo[2,1-a]quinoxalin-6-imines: in vitro antiproliferative activity and molecular mechanism(s) of action” (Eur J Med Chem, 2015)
≈ marks a conversion by molar mass, not a printed value. Where “and” joins values, the source holds several entries; their conditions need not be identical. Equal values may be shown once. Calls of active or inactive are those of the source. The rule behind the calls is not given here.

Legend:
[1] = Binding affinity to double stranded DNA (unknown origin) assessed as change in melting temperature at 5 uM at pH 7.4 by fluorescence melting assay
Homo sapiens [2] = organism: Homo sapiens; experiment: Binding affinity to human telomeric DNA sequence assessed as change in melting temperature at 5 uM at pH 7.4 by fluorescence melting assay
[3] = Binding affinity to Pu24 DNA (unknown origin) assessed as change in melting temperature at 5 uM at pH 7.4 by fluorescence melting assay
[4] = Growth inhibition of human NCI60 cells; type: functional
[5] = Solubility in water at 25 degC sonicated for 10 mins by HPLC method; type: physicochemical
U2OS [6] = experiment: Induction of apoptosis in human U2OS cells assessed as increase in caspase-3 catalytic activity at cytotoxic IC50 level after 72 hrs; type: functional
Tubulin (Homo sapiens) [7] = target: T1, Tubulin (Homo sapiens) (UniProt P68371+Q9H4B7+P0DPH7+P68366+Q13509+Q71U36+P04350+Q3ZCM7+P07437+P68363+Q9BQE3+Q6PEY2+Q13885+Q9BVA1+Q9BUF5); experiment: Inhibition of tubulin polymerization in human U2OS cells at cytotoxic IC50 level after 72 hrs by Western blotting method; type: cell-based
U2OS [8] = experiment: Induction of telomere architecture perturbations in human U2OS cells assessed as displacement of human DNA topoisomerase 1 from telomeres at cytotoxic IC50 level after 24 hrs by chromatin immunoprecipitation method; type: functional
U2OS [9] = experiment: Induction of telomere architecture perturbations in human U2OS cells assessed as displacement of TRF2 from telomeres at cytotoxic IC50 level after 24 hrs by chromatin immunoprecipitation method; type: functional
U2OS [10] = experiment: Induction of telomere architecture perturbations in human U2OS cells assessed as displacement of hPOT1 from telomeres at cytotoxic IC50 level after 12 hrs by chromatin immunoprecipitation method; type: functional
U2OS [11] = experiment: Induction of telomere architecture perturbations in human U2OS cells assessed as displacement of hPOT1 from telomeres at cytotoxic IC50 level after 24 hrs by chromatin immunoprecipitation method; type: functional
U2OS [12] = experiment: Induction of telomere architecture perturbations in human U2OS cells assessed as increase in DNA topoisomerase 1 binding to telomeric sequences at cytotoxic IC50 level after 12 hrs by chromatin immunoprecipitation method; type: functional
Calf thymus DNA = experiment: Binding affinity to calf thymus double stranded DNA assessed as induction of modification of dichroic signal by CD spectroscopy; type: nucleic-acid assay; settings: Bos taurus
U2OS [13] = experiment: Induction of cell cycle arrest in human U2OS cells assessed as accumulation at G2/M phase at cytotoxic IC50 level by propidium iodide staining based based cytofluorimetry; type: functional; settings: TDE = time-dependent effect
Homo sapiens [14] = organism: Homo sapiens; experiment: Binding affinity to human telomeric DNA sequence Tel22 assessed as induction of modification of dichroic signal at 0 to 16 uM at pH 7.4 by CD spectroscopy
[15] = target: T2, DNA topoisomerase 1 (Homo sapiens) (UniProt P11387); experiment: Inhibition of human recombinant topoisomerase 1-dependent DNA cleavage using 751-bp BamHI-EcoRI fragment of SV40 DNA at 1 to 50 uM incubated for 30 mins by PAGE method
T2 sequence (whole entry): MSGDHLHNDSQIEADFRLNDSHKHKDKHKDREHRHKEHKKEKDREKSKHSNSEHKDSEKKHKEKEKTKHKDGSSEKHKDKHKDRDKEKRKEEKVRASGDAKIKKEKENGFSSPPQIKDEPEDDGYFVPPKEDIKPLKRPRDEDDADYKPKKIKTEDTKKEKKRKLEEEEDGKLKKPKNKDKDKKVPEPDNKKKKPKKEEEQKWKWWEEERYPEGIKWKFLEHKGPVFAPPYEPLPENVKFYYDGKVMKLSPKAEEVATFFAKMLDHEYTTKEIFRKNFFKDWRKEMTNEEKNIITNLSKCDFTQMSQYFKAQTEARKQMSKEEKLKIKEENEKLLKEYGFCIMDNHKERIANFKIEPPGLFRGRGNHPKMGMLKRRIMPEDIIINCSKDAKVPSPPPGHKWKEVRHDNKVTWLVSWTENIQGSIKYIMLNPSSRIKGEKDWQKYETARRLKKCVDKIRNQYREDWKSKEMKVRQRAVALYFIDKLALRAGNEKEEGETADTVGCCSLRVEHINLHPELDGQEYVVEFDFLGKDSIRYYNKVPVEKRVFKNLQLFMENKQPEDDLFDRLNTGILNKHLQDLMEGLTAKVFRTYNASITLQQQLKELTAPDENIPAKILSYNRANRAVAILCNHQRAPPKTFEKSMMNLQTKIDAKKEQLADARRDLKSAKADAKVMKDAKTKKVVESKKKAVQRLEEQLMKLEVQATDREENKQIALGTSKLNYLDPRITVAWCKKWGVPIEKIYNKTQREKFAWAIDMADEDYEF

U2OS [16] = experiment: Induction of cell cycle arrest in human U2OS cells assessed as increase in accumulation at subG1 phase at cytotoxic IC50 level by propidium iodide staining based based cytofluorimetry; type: functional; settings: TDE = time-dependent effect
U2OS [17] = experiment: Growth inhibition of human U2OS cells after 72 hrs by coulter counter method; type: functional, cell-based
U2OS [18] = experiment: Induction of telomere architecture perturbations in human U2OS cells assessed as displacement of hPOT1 from telomeres at cytotoxic IC50 level after 72 hrs by chromatin immunoprecipitation method; type: functional, cell-based
[19] = target: T2, DNA topoisomerase 1 (Homo sapiens); settings: 50 uM
Description: Inhibition of human recombinant topoisomerase 1-dependent DNA cleavage using 751-bp BamHI-EcoRI fragment of SV40 DNA at 50 uM incubated for 30 mins by PAGE method

Tubulin (Homo sapiens) [20] = target: T1, Tubulin (Homo sapiens); experiment: Induction of tubulin polymerization in human U2OS cells at cytotoxic IC50 level after 72 hrs by Western blotting method; type: cell-based

| Structure (SMILES) | ΔTm [1] | ΔTm (Homo sapiens [2]) | ΔTm [3] | GI50 ([4]; Homo sapiens, NCI60) [µM] | solubility at 10 min [5] [mM] | further results |
| --- | --- | --- | --- | --- | --- | --- |
| COc1ccc2c(c1)[nH]c(=N)c1c3ccccc3cn21 | 0.2 °C | 1.4 °C | 2 °C | – | – | – |
| COc1ccc2c(c1)[nH]c(=N)c1c3cc(C)c(C)cc3cn21 | 0.1 °C and 0 °C | 2.6 °C and 1.4 °C | 2.1 °C | < 3.8 | 7.8 (≈ 2270 µg/mL) | – |
| N=c1[nH]c2ccccc2n2cc3ccccc3c12 | 0.3 °C | 1.1 °C | 1.5 °C | – | – | – |
| CCC1=C[C@@H]2CN(C1)Cc1c([nH]c3ccccc13)[C@@](C(=O)OC)(c1cc3c(cc1OC)N(C)[C@H]1[C@@](O)(C(=O)OC)[C@H](OC(C)=O)[C@]4(CC)C=CCN5CC[C@]31[C@@H]54)C2 | – | – | – | – | – | Activity (U2OS [6]): Active; tubulin polymerization inhibition (active/inactive) (Tubulin (Homo sapiens) [7]): Active |
| Cc1cc2cn3c4ccc(O)cc4[nH]c(=N)c3c2cc1C [listing 1 of 2 here] | – | – | – | – | 14.1 (≈ 3910 µg/mL) | GI50 [4]: < 1.45 µM |
| COc1ccc(OC)c2c1[nH]c(=N)c1c3ccccc3cn21 | 0.3 °C and 0.7 °C | 4.3 °C and 4.4 °C | 2.6 °C and 2.2 °C | 2.29 | 12.7 (≈ 3730 µg/mL) | – |
| COc1ccc2c(c1)[nH]c(=N)c1c3cc(OC)c(OC)cc3cn21 [listing 1 of 2 here] | 0 °C and 0.1 °C | 5 °C and 3.1 °C | 4.1 °C and 2.4 °C | – | – | – |
| CC(=O)O.COc1cc2cn3c4ccc(O)cc4[nH]c(=N)c3c2cc1OC | – | – | – | – | 14 | fold change (FC) (U2OS [6]): 17; inhibition (INH) (U2OS [8]): 57%; Activity (U2OS [9]): -66%; GI50 [4]: < 3.31 µM; Activity (U2OS [10]): -63%; Activity (U2OS [11]): -31%; Activity (U2OS [12]): 77% |
| Cc1cc2cn3c4ccc(O)cc4[nH]c(=N)c3c2cc1C [listing 2 of 2 here] | 0.2 °C and 0.1 °C | 3.6 °C and 2.5 °C | 1.9 °C and 1.1 °C | – | – | – |
| COc1cc2cn3c4ccc(O)cc4[nH]c(=N)c3c2cc1OC | 0.3 °C and 0.2 °C | 5.9 °C and 6.2 °C | 3.4 °C and 2.4 °C | – | – | Activity (Calf thymus DNA): Active; Activity (U2OS [13]): tde; Activity (Homo sapiens [14]): Active; inhibition of DNA cleavage (qualitative) [15]: Active; Activity (U2OS [16]): tde; Activity (U2OS [11]): inactive; growth inhibition (GI) (U2OS [17]): Active; tubulin polymerization inhibition (active/inactive) (Tubulin (Homo sapiens) [7]): Active |
| N=c1[nH]c2cc(Cl)c(Cl)cc2n2cc3ccccc3c12 | 0 °C | 0.3 °C | 1.1 °C | – | – | – |
| COc1ccc2c(c1)cn1c3ccc(O)cc3[nH]c(=N)c21 [listing 1 of 2 here] | – | – | – | 11 | 21.9 (≈ 6120 µg/mL) | – |
| COc1ccc2c(c1)[nH]c(=N)c1c3cccc(F)c3cn21 | 0.2 °C | 1.8 °C | 2.1 °C | 10.7 | 14.4 (≈ 4050 µg/mL) | – |
| COc1ccc2cn3c4ccc(O)cc4[nH]c(=N)c3c2c1 | 0.2 °C | 1.9 °C | 0.2 °C | 12.3 | 22.4 (≈ 6260 µg/mL) | – |
| COc1ccc2c(c1)cn1c3ccc(OC)cc3[nH]c(=N)c21 | 0 °C | 1.2 °C | 1.1 °C | < 1.2 | 13 (≈ 3810 µg/mL) | Activity (U2OS [18]): inactive; fold change (FC) (U2OS [6]): 13; inhibition (INH) (U2OS [8]): 57%; Activity (Calf thymus DNA): inactive; Activity (U2OS [13]): tde; Activity (U2OS [9]): -67%; inhibition of DNA cleavage (qualitative) [15]: Dose-dependent effect; Activity (U2OS [16]): tde; growth inhibition (GI) (U2OS [17]): Active; tubulin polymerization inhibition (active/inactive) (Tubulin (Homo sapiens) [7]): Active |
| N=c1[nH]c2cc(O)ccc2n2cc3c(F)cccc3c12 [listing 1 of 2 here] | – | – | – | – | 23 (≈ 6150 µg/mL) | GI50 [4]: 31.6 µM |
| CC(=O)O.N=c1[nH]c2cc(O)ccc2n2cc3c(F)cccc3c12 | – | – | – | – | 12.7 | GI50 [4]: 6.31 µM |
| CCc1c2c(nc3ccc(O)cc13)-c1cc3c(c(=O)n1C2)COC(=O)[C@]3(O)CC | – | – | – | – | – | inhibition [19]: Active |
| COc1ccc2c(c1)[nH]c(=O)c1c3ccccc3cn21 | – | – | – | – | 3.4 (≈ 899 µg/mL) | – |
| CC(=O)O[C@H]1C(=O)[C@@]2(C)[C@H]([C@H](OC(=O)c3ccccc3)[C@]3(O)C[C@H](OC(=O)[C@H](O)[C@@H](NC(=O)c4ccccc4)c4ccccc4)C(C)=C1C3(C)C)[C@]1(OC(C)=O)CO[C@@H]1C[C@@H]2O | – | – | – | – | – | Activity (U2OS [6]): Active; Activity (Tubulin (Homo sapiens) [20]): Active |
| N=c1[nH]c2cc(O)ccc2n2cc3c(F)cccc3c12 [listing 2 of 2 here] | 0 °C | 1 °C and 0.8 °C | 2 °C and 1 °C | – | – | inhibition of DNA cleavage (qualitative) [15]: Dose-dependent effect |
| COc1ccc2[nH]c(=N)c3c4ccccc4cn3c2c1 | 0.1 °C and 0 °C | 1.5 °C and 2 °C | 1.1 °C and 2.3 °C | 1.55 | 13.8 (≈ 3630 µg/mL) | – |
| COc1ccc2c(c1)cn1c3ccc(O)cc3[nH]c(=N)c21 [listing 2 of 2 here] | 0.1 °C and 0.7 °C | 4.4 °C and 4.3 °C | 1.9 °C and 2.9 °C | – | – | – |
| CC(=O)O.COc1ccc2c(c1)cn1c3ccc(O)cc3[nH]c(=N)c21 | – | – | – | – | 10.9 | GI50 [4]: < 8.32 µM |
| COc1ccc2c(c1)[nH]c(=N)c1c3cc(OC)c(OC)cc3cn21 [listing 2 of 2 here] | – | – | – | > 15.5 | 14.4 (≈ 4660 µg/mL) | – |
| Cc1cccc2c1[nH]c(=N)c1c3ccccc3cn21 | 0.2 °C | 1.8 °C | 1.5 °C | – | – | – |
| COc1ccc2c(c1)[nH]c(=N)c1c3cc(OC)ccc3cn21 | – | – | – | < 1.05 | 13.2 (≈ 3870 µg/mL) | – |
| CC(=O)O.Cc1cc2cn3c4ccc(O)cc4[nH]c(=N)c3c2cc1C | – | – | – | – | 9.8 | GI50 [4]: < 5.25 µM |
| Cc1cc2[nH]c(=N)c3c4ccccc4cn3c2cc1C | 0.3 °C | 3.1 °C | 1.9 °C | – | – | – |
| CC(=O)O.COc1ccc2c(c1)[nH]c(=N)c1c3cc(OC)c(OC)cc3cn21 | – | – | – | – | 7.2 | GI50 [4]: < 9.55 µM |
